The values that follow come from patent US10087165B2, “Fluoroquinolones and use thereof to treat bacterial infections” (UNIVERSITÉ PIERRE ET MARIE CURIE—PARIS 6 (UPMC), priority 2014, dated 2018).

In brackets after ≈: the same amount, converted by molar mass. Read-outs that look alike come from different tables or passages of the source. Some results are limits rather than exact numbers.

For experiment [1], the system named is M. tuberculosis H37Rv GyrA D94G. The experiment is classed as cell-based.
For experiment [2], the system named is M. tuberculosis H37Rv GyrA A90V. It counts as cell-based.
Experiment [3] relates to M. tuberculosis H37Rv GyrB D500N. It counts as cell-based.
In experiment [4] the test system is multidrug-resistant M. tuberculosis clinical strain GV1503014223. Briefly: microbe, parasite or virus in culture. It counts as cell-based. Particulars: Mycobacterium tuberculosis; MDR clinical strain; Table 3.
In experiment [5] the test system is multidrug-resistant M. tuberculosis clinical strain KC1503006247. The experiment can be described thus: microbe, parasite or virus in culture. The experiment is classed as cell-based. Particulars: Mycobacterium tuberculosis; MDR clinical strain; Table 3.
Experiment [6] deals with multidrug-resistant M. tuberculosis clinical strain XCC1503082245. The experiment can be described thus: microbe, parasite or virus in culture. Particulars: Mycobacterium tuberculosis; MDR clinical strain; Table 3. It counts as cell-based.
The test system of experiment [7] is quinolone-resistant M. tuberculosis strains (GyrB D500N, GyrA D94G and GyrA A90V strains). The experiment is classed as cell-based.
In experiment [8] the test system is M. tuberculosis H37Rv GyrA D94G. Particulars: Table 2, published previously (Poissy et al. 2010); cited from earlier work.
Experiment [9] relates to M. tuberculosis H37Rv GyrA A90V. Particulars: Table 2, published previously (Poissy et al. 2010); cited from earlier work.

On to `CCCCCCCCCCCCN1CCN(c2c(F)cc3c(=O)c(C(=O)O)cn(C4CC4)c3c2OC)CC1` [Compound 20, 1-cyclopropyl-7-(4-dodecylpiperazin-1-yl)-6-fluoro-8-methoxy-4-oxo-1,4-dihydroquinoline-3-carboxylic acid], for which the “MIC M. tuberculosis H37Rv GyrA D94G” value in experiment [1] worked out at 1.9 µM (≈ 1.01 µg/mL). Also, in [2], the “MIC M. tuberculosis H37Rv GyrA A90V” value came out at 1.9 µM (≈ 1.01 µg/mL). The “MIC M. tuberculosis H37Rv GyrB D500N” value in experiment [3] stood at 0.23 µM (≈ 0.122 µg/mL). Besides, the MIC in [4], in [5] and in experiment [6] was 0.47 µM (≈ 0.249 µg/mL) each time.

Turning to `CCCCCCCCCCN1CCN(c2c(F)cc3c(=O)c(C(=O)O)cn(C4CC4)c3c2OC)CC1` [Quin 19, 1-cyclopropyl-7-(4-decylpiperazin-1-yl)-6-fluoro-8-methoxy-4-oxo-1,4-dihydroquinoline-3-carboxylic acid], in experiment [1], the “MIC (M. tuberculosis) D94G” value stood at 1 µM (≈ 0.502 µg/mL) and the “MIC M. tuberculosis H37Rv GyrA D94G” value turned out to be 2 µM (≈ 1 µg/mL). Moreover, in experiment [2], the “MIC (M. tuberculosis) A90V” value is 0.5 µM (≈ 0.251 µg/mL) and the “MIC M. tuberculosis H37Rv GyrA A90V” value was determined as 1 µM (≈ 0.502 µg/mL). In addition, the “MIC M. tuberculosis H37Rv GyrB D500N” value in experiment [3] was found to be 0.5 µM (≈ 0.251 µg/mL). Further, the MIC in [4] was under 0.12 µM. Further, the MIC in experiment [5] was under 0.12 µM. The same compound had an MIC in experiment [6] of 0.5 µM (≈ 0.251 µg/mL). The “antibacterial activity against quinolone-resistant M. tuberculosis strains (in words)” value in experiment [7] is given as “high antibacterial activity”.

For the compound `CCCCCCCCCCCN1CCN(c2c(F)cc3c(=O)c(C(=O)O)cn(C4CC4)c3c2OC)CC1` [Compound 19, 1-cyclopropyl-6-fluoro-8-methoxy-4-oxo-7-(4-undecylpiperazin-1-yl)-1,4-dihydroquinoline-3-carboxylic acid], the “MIC M. tuberculosis H37Rv GyrA D94G” value in [1] was 10 µM (≈ 5.16 µg/mL). For the same compound, in [2], the “MIC M. tuberculosis H37Rv GyrA A90V” value was 10 µM (≈ 5.16 µg/mL). The “MIC M. tuberculosis H37Rv GyrB D500N” value in experiment [3] was 2 µM (≈ 1.03 µg/mL). The MIC in experiment [4] turned out to be 0.5 µM (≈ 0.258 µg/mL); in experiment [5] it was 0.12 µM (≈ 0.0619 µg/mL); in experiment [6], 0.5 µM (≈ 0.258 µg/mL).

As to `CCCCCCCCCCN1CCN(c2cc3c(cc2F)c(=O)c(C(=O)O)cn3C2CC2)CC1` [Quin 9, 1-cyclopropyl-7-(4-decylpiperazin-1-yl)-6-fluoro-4-oxo-1,4-dihydroquinoline-3-carboxylic acid], the “MIC (M. tuberculosis) D94G” value in [1] is at least 4.8 µM. Further, the “MIC (M. tuberculosis) A90V” value in experiment [2] was at least 4.8 µM.

Turning to `O=C(O)c1cn(C2CC2)c2cc(N3CCNCC3)c(F)cc2c1=O` [Ciprofloxacin, ciprofloxacin, reference compound], the “MIC (M. tuberculosis) D94G” value in [1] is at least 24 µM. In experiment [2], the “MIC (M. tuberculosis) A90V” value is at least 24 µM.

Consider `CCCCCN1CCN(c2c(F)cc3c(=O)c(C(=O)O)cn(C4CC4)c3c2OC)CC1` [Quin 17, 1-cyclopropyl-6-fluoro-8-methoxy-4-oxo-7-(4-pentylpiperazin-1-yl)-1,4-dihydroquinoline-3-carboxylic acid], for which the “MIC (M. tuberculosis) D94G” value in experiment [1] is over 18.5 µM. The “MIC (M. tuberculosis) A90V” value in experiment [2] is 18.5 µM (≈ 7.98 µg/mL).

Turning to `CCCCCCCCCCCCCCCCN1CCN(c2c(F)cc3c(=O)c(C(=O)O)cn(C4CC4)c3c2OC)CC1` [Quin 20, 1-cyclopropyl-6-fluoro-7-(4-hexadecylpiperazin-1-yl)-8-methoxy-4-oxo-1,4-dihydroquinoline-3-carboxylic acid], in experiment [1], the “MIC (M. tuberculosis) D94G” value was over 13.7 µM. For the same compound, the “MIC (M. tuberculosis) A90V” value in experiment [2] amounted to 13.7 µM (≈ 8.03 µg/mL).

For the compound `CCCCCCCN1CCN(c2c(F)cc3c(=O)c(C(=O)O)cn(C4CC4)c3c2OC)CC1` [Compound 15, 1-cyclopropyl-6-fluoro-7-(4-heptylpiperazin-1-yl)-8-methoxy-4-oxo-1,4-dihydroquinoline-3-carboxylic acid], the “MIC M. tuberculosis H37Rv GyrA D94G” value in experiment [1] amounted to 0.5 µM (≈ 0.23 µg/mL). Besides, in [2], the “MIC M. tuberculosis H37Rv GyrA A90V” value turned out to be 2.2 µM (≈ 1.01 µg/mL). In addition, the “MIC M. tuberculosis H37Rv GyrB D500N” value in [3] was 2.2 µM (≈ 1.01 µg/mL). For the same compound, the MIC in [4], in experiment [5] and in experiment [6] was 1 µM (≈ 0.46 µg/mL) in each case.

Take `CCCCCCCCCN1CCN(c2c(F)cc3c(=O)c(C(=O)O)cn(C4CC4)c3c2OC)CC1` [Compound 17, 1-cyclopropyl-6-fluoro-8-methoxy-7-(4-nonylpiperazin-1-yl)-4-oxo-1,4-dihydroquinoline-3-carboxylic acid]: the “MIC M. tuberculosis H37Rv GyrA D94G” value in experiment [1] stood at 2 µM (≈ 0.975 µg/mL). The “MIC M. tuberculosis H37Rv GyrA A90V” value in experiment [2] came to 2 µM (≈ 0.975 µg/mL). The “MIC M. tuberculosis H37Rv GyrB D500N” value in experiment [3] was found to be 0.5 µM (≈ 0.244 µg/mL). In addition, the MIC was under 0.12 µM in [4], under 0.12 µM in experiment [5] and 1 µM (≈ 0.488 µg/mL) in experiment [6].

As to `CCCCCCCCN1CCN(c2c(F)cc3c(=O)c(C(=O)O)cn(C4CC4)c3c2OC)CC1` [Quin 18, 1-cyclopropyl-6-fluoro-8-methoxy-7-(4-octylpiperazin-1-yl)-4-oxo-1,4-dihydroquinoline-3-carboxylic acid], in experiment [1], the “MIC (M. tuberculosis) D94G” value was found to be 2 µM (≈ 0.947 µg/mL) and the “MIC M. tuberculosis H37Rv GyrA D94G” value came to 2 µM (≈ 0.947 µg/mL). Moreover, in experiment [2], the “MIC (M. tuberculosis) A90V” value worked out at 0.5 µM (≈ 0.237 µg/mL) and the “MIC M. tuberculosis H37Rv GyrA A90V” value is 2 µM (≈ 0.947 µg/mL). In [3], the “MIC M. tuberculosis H37Rv GyrB D500N” value is under 0.12 µM. The MIC in experiment [4] is under 0.12 µM. This compound returned an MIC in [5] of under 0.12 µM. In experiment [6], this compound had an MIC of 0.12 µM (≈ 0.0568 µg/mL). For the same compound, the “antibacterial activity against quinolone-resistant M. tuberculosis strains (in words)” value in [7] is recorded as “high antibacterial activity”.

Regarding `CCCCCCCCN1CCN(c2cc3c(cc2F)c(=O)c(C(=O)O)cn3C2CC2)CC1` [Quin 16, 1-cyclopropyl-6-fluoro-7-(4-octylpiperazin-1-yl)-4-oxo-1,4-dihydroquinoline-3-carboxylic acid], the “MIC (M. tuberculosis) D94G” value in experiment [1] is 13.5 µM (≈ 5.99 µg/mL). For the same compound, in [2], the “MIC (M. tuberculosis) A90V” value was 6.7 µM (≈ 2.97 µg/mL).

`COc1c(N2CCNC(C)C2)c(F)cc2c(=O)c(C(=O)O)cn(C3CC3)c12` (stereo not drawn) [Gatifloxacin, gatifloxacin]: in [8], the “MIC (M. tuberculosis) D94G” value is 2.66 µM (≈ 0.999 µg/mL). In [9], the “MIC (M. tuberculosis) A90V” value was 5.33 µM (≈ 2 µg/mL).
